# Entries after “also recorded” stand apart in the source; their conditions may differ. Counter-ions that a name gives are not always drawn.
# Test system: Ia^d on colonic endothelium and epithelium
# Assay: Ia^d expression and anti-Ia^d antibody localization in the gut of BALB/c nu/nu mice given oral tetracycline-HCl (indirect immunoperoxidase staining)
# Assay type: in vivo, mouse
# Experimental: BALB/c nu/nu mice were purchased from Simonsen (Gilroy, Calif.). SCID mice were from the UT Southwestern Medical Center breeding colony. All animals were maintained in microisolation units on sterilized food and water. Where indicated, tetracycline-HCI (Vedeo, St. Joseph, Mo.) was added to drinking water to a final concentration of 1.1 mg/ml (Harkness et al., 1983). Both strains carry the H-2^d haplotype.
# For the establishment of solid tumors, a total of 2×10^7 C1300 or C1300 (Muγ) cells, or a mixture of the two, in 200 μl MEM-30% FCS were injected subcutaneously into the right anterior flank of BALB/c nu/nu or SCID mice. Tumor diameters were measured at regular intervals and the animals were euthanized after 16 days (rapidly-growing tumors) or 20 days (slowly-growing tumors). Tumors and normal tissues were excised immediately and snap-frozen over liquid nitrogen. Normal tissues were also harvested from non-tumor-bearing animals. Antibody localization studies were performed in animals bearing 1 cm subcutaneous tumors induced by injection of C1300 and C1300 (Muγ) in the ratio 7:3. One hundred micrograms of unconjugated M5/114 or CAMPATH-2 antibodies or 100 μg biotinylated 11-4.1 or WT-1 antibodies in 100 μl PBS were injected intravenously. At various times thereafter the animals were euthanized and their circulation was flushed with PBS for 5 minutes before removal and freezing of tumors and normal tissues as before. […] frozen sections were cut on a Tissuetek 2 cryostat (Baxter) and air-dried for 2 hours at room temperature. Slides were stored at -20° C. for up to 3 months before assay.
# Indirect immunoperoxidase staining for rat IgG was adapted from a method described by Billington et al. (1986). Sections were allowed to return to room temperature, air dried for 30 minutes and fixed in acetone for 15 minutes. After rehydration in PBS for 5 minutes, sections were incubated in a humidified chamber for 45-60 minutes with primary antibodies, diluted optimally in PBS-0.2% BSA, (PBS-BSA). […]
smiles,measurement,setting,value
"CN(C)[C@@H]1C(O)=C(C(N)=O)C(=O)[C@@]2(O)C(O)=C3C(=O)c4c(O)cccc4[C@@](C)(O)[C@H]3C[C@@H]12 [tetracycline-Hcl, tetracycline-HCI]",localization of intravenously-injected anti-Ia^d antibody to colonic endothelial cells,oral administration before antibody injection,abolished localization
same,Ia^d expression in the colon and elsewhere in the gut,"oral, 1-3 weeks",progressive diminution; also recorded: diminished Ia^d expression
same,numbers of intravillous CD3-positive cells,"oral, 1-3 weeks",dramatic decrease

# Source: patent US5776427A, “Methods for targeting the vasculature of solid tumors” (Board of Regents, The University of Texas System, priority 1995, dated 1998)
